Experimental data from ChEMBL document CHEMBL4257562, “Pseudomonas aeruginosa Quorum Sensing Systems as Drug Discovery Targets: Current Position and Future Perspectives” (J Med Chem, 2018).

Tests used:
[1] = Inhibition of Pseudomonas aeruginosa PqsBC assessed as decrease in conversion of 2-ABA/octanoyl-CoA to HHQ measured every 60 secs
[2] = target: T1, 2-heptyl-4(1H)-quinolone synthase PqsD (Pseudomonas aeruginosa, UniProt A0A0C7ACN7); experiment: Inhibition of Pseudomonas aeruginosa PqsD
T1 sequence (A0A0C7ACN7 whole entry): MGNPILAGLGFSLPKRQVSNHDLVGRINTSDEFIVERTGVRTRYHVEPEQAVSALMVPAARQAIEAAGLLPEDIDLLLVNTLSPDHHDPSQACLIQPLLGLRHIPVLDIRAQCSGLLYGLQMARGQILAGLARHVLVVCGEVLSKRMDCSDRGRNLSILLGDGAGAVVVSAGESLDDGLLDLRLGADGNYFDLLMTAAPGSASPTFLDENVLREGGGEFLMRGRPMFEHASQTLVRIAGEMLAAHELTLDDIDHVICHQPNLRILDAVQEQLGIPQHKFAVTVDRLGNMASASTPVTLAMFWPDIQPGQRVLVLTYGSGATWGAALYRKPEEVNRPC

[3] = Inhibition of Pseudomonas aeruginosa PqsR
[4] = target: T2, Transcriptional activator protein LasR (Pseudomonas aeruginosa (strain ATCC 15692 / PAO1 / 1C / PRS 101 / LMG12228)) (UniProt P25084); experiment: Antagonist activity at Pseudomonas aeruginosa LasR expressed in Pseudomonas putida F117 assessed as inhibition of 3-oxo-C12-HSL-induced protein activation at 20 uM after 4 hrs by fluorescence assay relative to control
T2 sequence (whole entry): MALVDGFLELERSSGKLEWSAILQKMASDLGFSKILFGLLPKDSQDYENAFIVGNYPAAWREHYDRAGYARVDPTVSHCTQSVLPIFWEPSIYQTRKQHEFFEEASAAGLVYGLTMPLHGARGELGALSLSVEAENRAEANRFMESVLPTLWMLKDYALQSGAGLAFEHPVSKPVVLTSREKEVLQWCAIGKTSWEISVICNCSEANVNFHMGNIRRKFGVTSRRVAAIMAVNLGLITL

[5] = target: T3, Transcriptional activator protein LasR (Pseudomonas aeruginosa (strain ATCC 15692 / PAO1 / 1C / PRS 101 / LMG12228), UniProt P25084); experiment: Antagonist activity at LasR in Pseudomonas aeruginosa reporter strain
T3 sequence (P25084 whole entry): T2 sequence (whole entry)

[6] = target: T1, 2-heptyl-4(1H)-quinolone synthase PqsD; experiment: Binding affinity to recombinant Pseudomonas aeruginosa PqsD at 298 K by ITC assay
[7] = target: T1, 2-heptyl-4(1H)-quinolone synthase PqsD; experiment: Inhibition of recombinant Pseudomonas aeruginosa PqsD expressed in Escherichia coli using anthraniloyl-CoA as substrate assessed as decrease in HHQ production
[8] = Inhibition of Pseudomonas aeruginosa PA14 PqsBC catalytic activity using 2-ABA/octanoyl-CoA as substrate after 5 mins
[9] = target: T3, Transcriptional activator protein LasR; experiment: Antagonist activity at Pseudomonas aeruginosa MW1 LasR assessed as inhibition of protein interaction with OdDHL by beta-galactosidase reporter gene assay
[10] = target: T3, Transcriptional activator protein LasR; experiment: Antagonist activity at Pseudomonas aeruginosa LasR expressed in Escherichia coli DH5alpha assessed as inhibition of protein interaction with OdDHL after 1.5 hrs by beta-galactosidase reporter gene assay
[11] = tested on: Escherichia coli; experiment: Antagonist activity at Escherichia coli LasR at 6 uM by luciferase reporter gene assay
[12] = Antagonist activity at Escherichia coli DH5alpha PqsR by beta-galactosidase reporter gene assay
[13] = target: T3, Transcriptional activator protein LasR; experiment: Inhibition of LasR in Pseudomonas aeruginosa reporter strain harboring gfp-lasB
[14] = Antagonist activity at Pseudomonas aeruginosa PqsR
[15] = Antagonist activity at Pseudomonas aeruginosa His6/Sumo-tagged PqsR by beta-galactosidase reporter gene assay
[16] = Antagonist activity at Escherichia coli His6/Sumo-tagged PqsR by beta-galactosidase reporter gene assay
[17] = target: T4, HTH-type quorum-sensing regulator RhlR (Pseudomonas aeruginosa (strain ATCC 15692 / PAO1 / 1C / PRS 101 / LMG12228)) (UniProt P54292); settings: 2.27 mM
T4 sequence (whole entry): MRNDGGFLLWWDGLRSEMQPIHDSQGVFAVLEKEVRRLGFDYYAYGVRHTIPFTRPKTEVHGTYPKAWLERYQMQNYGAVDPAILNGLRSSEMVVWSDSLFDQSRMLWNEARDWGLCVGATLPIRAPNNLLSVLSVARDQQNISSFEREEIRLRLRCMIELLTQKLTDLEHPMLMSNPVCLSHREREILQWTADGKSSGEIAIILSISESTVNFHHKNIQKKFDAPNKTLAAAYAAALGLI
Description: Antagonist activity at Pseudomonas aeruginosa PAO1 GFP-fused RhlR expressed in Escherichia coli DH5alpha co-expressing rhlA promoter assessed as inhibition of L-arabinose-induced C4-HSL production at 2.27 mM after 5 hrs relative to control

[18] = target: T1, 2-heptyl-4(1H)-quinolone synthase PqsD; experiment: Antagonist activity at Pseudomonas aeruginosa PqsD
[19] = tested on: Pseudomonas aeruginosa; experiment: Antibiofilm activity against Pseudomonas aeruginosa PA14 at 100 uM; format: functional
[20] = target: T3, Transcriptional activator protein LasR; experiment: Antagonist activity at GFP-fused LasR in Pseudomonas aeruginosa PAO-JP2 co-expressing LVAgfp plasmid by fluorescence assay
[21] = tested on: Pseudomonas aeruginosa; experiment: In vivo inhibition of Pseudomonas aeruginosa PA14 PqsR in immunocompetent acute mouse thigh infection model assessed as decrease in PQS levels in plasma at 200 mg/kg, po administered at 2, 10, 18 and 26 hrs post infection measured at 12 hrs relative to control; format: functional
[22] = target: T4, HTH-type quorum-sensing regulator RhlR (Pseudomonas aeruginosa (strain ATCC 15692 / PAO1 / 1C / PRS 101 / LMG12228)); experiment: Non-competitive inhibition of Pseudomonas aeruginosa RhlR expressed in Escherichia coli; settings: concentration not given here
[23] = target: T2, Transcriptional activator protein LasR (Pseudomonas aeruginosa (strain ATCC 15692 / PAO1 / 1C / PRS 101 / LMG12228)); experiment: Non-competitive inhibition of Pseudomonas aeruginosa LasR expressed in Escherichia coli; settings: concentration not given here
[24] = target: T5, HTH-type quorum-sensing regulator RhlR (Pseudomonas aeruginosa (strain ATCC 15692 / PAO1 / 1C / PRS 101 / LMG12228), UniProt P54292); experiment: Inhibition of Pseudomonas aeruginosa GFP-fused RhlR expressed in Escherichia coli BL21-Gold (DE3) co-expressing rhlA promoter by beta-galactosidase reporter gene assay
T5 sequence (P54292 whole entry): T4 sequence (whole entry)

[25] = target: T2, Transcriptional activator protein LasR (Pseudomonas aeruginosa (strain ATCC 15692 / PAO1 / 1C / PRS 101 / LMG12228)); experiment: Inhibition of OC12-HSL-dependent LasR activation in Pseudomonas aeruginosa MH602 harboring GFP-fused quorum sensing lasB at 250 uM measured every 30 mins up to 15 hrs by GFP reporter gene assay
[26] = tested on: Pseudomonas aeruginosa; experiment: Inhibition of Pseudomonas aeruginosa quorum sensing system assessed as decrease in 3OC12-HSL production at 6 mM relative to control
[27] = tested on: Pseudomonas aeruginosa; experiment: Inhibition of Pseudomonas aeruginosa quorum sensing system assessed as decrease in C4-HSL production at 6 mM relative to control
[28] = target: T3, Transcriptional activator protein LasR; experiment: Inhibition of LasR in Pseudomonas aeruginosa harboring GFP-fused quorum sensing lasB measured every 15 mins up to 12 hrs by GFP reporter gene assay
[29] = Antagonist activity at Escherichia coli LasR assessed as inhibition of protein interaction with OdDHL by beta-galactosidase reporter gene assay
[30] = target: T6, Acyl-homoserine-lactone synthase (Pseudomonas aeruginosa (strain ATCC 15692 / PAO1 / 1C / PRS 101 / LMG12228)) (UniProt P33883); experiment: Inhibition of Pseudomonas aeruginosa PAO1 LasI after 10 mins by beta-galactosidase reporter gene assay
T6 sequence (whole entry): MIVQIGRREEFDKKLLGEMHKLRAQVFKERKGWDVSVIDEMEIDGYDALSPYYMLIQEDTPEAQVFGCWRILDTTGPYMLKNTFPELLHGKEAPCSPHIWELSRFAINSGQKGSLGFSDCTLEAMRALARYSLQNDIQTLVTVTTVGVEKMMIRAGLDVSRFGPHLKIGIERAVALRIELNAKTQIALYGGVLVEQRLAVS

[31] = target: T3, Transcriptional activator protein LasR; experiment: Antagonist activity at LasR in Pseudomonas aeruginosa PAO1 harboring GFP-fused quorum sensing lasB measured every 15 mins for 14 hrs by GFP reporter gene assay
[32] = target: T3, Transcriptional activator protein LasR; experiment: Antagonist activity at Pseudomonas aeruginosa LasR expressed in Escherichia coli DH5alpha assessed as inhibition of […]-induced receptor activation after 4 hrs by Miller-type beta-galactosidase reporter gene assay
[33] = tested on: Pseudomonas aeruginosa; experiment: Inhibition of Pseudomonas aeruginosa PQS signaling at 138 uM relative to control

CC(=O)c1ccccc1N [2-AMINOACETOPHENONE]
EC50 [1]: 46 µM

CS(=O)(=O)c1ncc(-n2cnnn2)cn1
IC50 [2]: 21 µM | IC50 [3]: 15 µM

NC(=O)SCNc1ccccc1O
inhibition [4]: 50 to 60%

Nc1cccc(-n2cc(CCC(=O)N[C@H]3CCOC3=O)nn2)c1
IC50 [5]: 4.03 µM

O=[N+]([O-])c1ccccc1C(O)c1ccccc1 (configuration not stated)
Kd [6]: 13 µM | IC50 [7]: 3.2 µM

O=C(CSc1nc2ccc([N+](=O)[O-])cc2[nH]1)Nc1ccc(I)cc1
IC50 [8]: 13.4 µM

O=C(CCSc1ccc(Cl)cc1)N[C@H]1CCOC1=O
IC50 [5]: 5.2 µM

CCCCCCCCNC(=O)CC(=O)c1ccccc1
IC50 [9]: 10 µM

O=C(CCc1ccc(Br)cc1)N[C@H]1CCOC1=O
IC50 [10]: 0.25 µM

CCCCCCCSCC(=O)N[C@H]1CCOC1=O
inhibition [11]: 50%

CCCCCCCc1cc(=O)c2cc(C(F)(F)F)ccc2[nH]1
IC50 [12]: 0.054 µM

CCCCCCCOc1ccc(C(=O)N[C@H]2CCOC2=O)cc1
IC50 [10]: 1 µM

C=CCSS/C=C/C[S+]([O-])CC=C (configuration not stated) [AJOENE]
IC50 [13]: 15 µM

O=C(Cc1cccc(I)c1)N[C@H]1CCOC1=O
IC50 [10]: 1.72 µM

CS(=O)(=O)c1ncc(-n2cc(C(O)C3CCCC3)nn2)cn1 (configuration not stated)
IC50 [14]: 26 µM

CC(C)(C)c1ccc(C(=O)NO)cc1
IC50 [15]: 23.6 µM | IC50 [16]: 12.5 µM

C[S+]([O-])CCCCN=C=S (configuration not stated)
inhibition [17]: 42.1%

O=C(Nc1ccccc1C(=O)O)c1ccc(-c2ccccc2)c(Oc2ccccc2)c1
IC50 [18]: 35 µM

CCCCCCS(=O)(=O)c1ncc(-n2ccnn2)cn1
IC50 [2]: 1.7 µM | Activity [19]: 60%

O=C(Cc1ccc(Br)cc1)N[C@H]1CCOC1=O
IC50 [20]: 14.8 µM

NC(=O)c1cc2cc(Cl)ccc2cc1OCC(=O)c1c[nH]c2cc(C3CC3)ccc12
inhibition in vivo at 200 mg/kg [21]: 50%

O=C(N[C@H]1CCOC1=O)c1ccc(-n2cc(CSc3ccccc3)nn2)cc1
IC50 [5]: 2.64 µM

O=c1cc(-c2ccccc2)oc2c(O)c(O)ccc12
inhibition [22]: > 70% | inhibition [23]: > 70%

CCCCCCCC(=O)N[C@H]1CCOC1=O
IC50 [10]: 0.34 µM

O=C(CCCC1CCCCC1)N[C@H]1CCOC1=O
IC50 [10]: 10 µM

O=C(CCCCOc1cccc(Br)c1)NC1CCSC1=O (configuration not stated)
IC50 [24]: 8 µM

CCOC(=O)CNC(=O)C(=O)c1ccccc1Nc1ccc([N+](=O)[O-])cc1[N+](=O)[O-]
inhibition [25]: 48%

CCCCCC(=O)Nc1c(-c2ccccc2)[nH]c2ccccc12
inhibition [25]: 65%

Cc1ccc2nc(SCC(=O)Nc3ccc(Br)cc3)[nH]c2c1
IC50 [8]: 12.5 µM

CN(C)CCc1ccc(O)cc1
inhibition [26]: 30% | inhibition [27]: 70%

Nc1ccc(S(=O)(=O)Nc2nccs2)cc1 [SULFATHIAZOLE]
IC50 [28]: 9 µM

CCN(CC)S(=O)(=O)c1cc(C(=O)Nc2ccccc2C(=O)O)ccc1Br
IC50 [18]: 65 µM

CCCCCCCc1cc(=O)c2cc([N+](=O)[O-])ccc2[nH]1
IC50 [12]: 0.051 µM

O=C(NCCc1ccc(Br)cc1)c1ccccc1[N+](=O)[O-]
IC50 [29]: 4.8 µM

CCCCc1cn(CC(=O)N[C@H]2CCOC2=O)nn1
IC50 [5]: 3.27 µM

CCCCCCC/C=C1\SC(=O)NC1=O
inhibition [30]: 40%

Nc1nc2nn[nH]c2c(=O)[nH]1 [8-AZAGUANINE]
IC50 [31]: 0.64 µM

NC(=O)SCNc1cccc(Cl)c1
inhibition [4]: 50 to 60%

O=C(CCCc1c[nH]c2ccccc12)N[C@H]1CCOC1=O
IC50 [20]: 16.1 µM

O=C(CCCCCCCCCN=C=S)CC(=O)N[C@H]1CCOC1=O
IC50 [32]: 134 µM

NCCCCCCCCCCCCNc1ccnc2cc(Cl)ccc12
inhibition [33]: 81%
